| Structure (SMILES) | melting point |
| --- | --- |
| [O-][N+]1=C(c2ccccc2Cl)c2cc(Cl)ccc2-c2ncncc2C1 | 216 to 217 °C |
| Cc1ccc(-c2ccc(C(=O)Nc3cc4ncc(CN5CCCC5)cc4cc3F)c(F)c2)cc1 | 179 to 181 °C |
| N#Cc1cccc(CCN2CCN(Cc3ccc(Cl)nc3)C2=N[N+](=O)[O-])c1 | 204 to 206 °C |
| COc1ccccc1N1CCN(CCNc2c(OC)cnn(C)c2=O)CC1 | 144 to 148 °C |
| CC(=O)c1c(O)cc(O)cc1O | 218 to 219 °C |
| Nc1ncc(-c2ccc([N+](=O)[O-])cc2-c2cccc(Cl)c2Cl)c(N)n1 | 237 to 239 °C |
| COC(=O)[C@@H](CCN1C(=O)c2ccccc2C1=O)Oc1c(Br)cc(-c2c(Br)ccc3sc4ccccc4c23)cc1Br | 99 to 101 °C |
| O=C(NCCC12CC3CC(CC(C3)C1)C2)c1cc(-c2ccccc2C(=O)O)ccc1Cl | 114 to 117 °C |
| O=c1nc(N2CCC(O)CC2)sc2ncccc12 | 206 to 207 °C |
| CC1=C2c3c(cnc4cc(Cl)ccc34)NC2CCN1 (stereo unspecified) | 209 to 212 °C |
| CCOC(CN1C(=O)C(NC(=O)Nc2cccc(C)c2)CN(C(=O)C(C)(C)C)c2ccccc21)OCC (stereo unspecified) | 167 to 169 °C |
| c1ccc(OCCSCc2nnc(-c3ccc(OCc4ccccn4)cc3)o2)cc1 | 115 °C |
| NC1CCN(c2ncc3ncnc(Nc4ccc(OCc5ccccc5)cc4)c3n2)CC1 | 150 °C |
| Cc1cc2c(cc1C)C(=O)C(CC(=O)O)CC2 (stereo unspecified) | 193 to 194 °C |
| Brc1ccn2nc(-c3ccccc3)nc2c1 | 189 to 191 °C |
| Cc1sc(NS(=O)(=O)c2c(Cl)cc(Cl)cc2Cl)nc1CC(=O)N1CCOCC1 | 216 to 217 °C |
| Cc1c(Cl)cc(-c2ccc(=O)[nH]n2)cc1Br | 247 to 250 °C |
| CC(C)(C)OC(=O)c1ccc(N2CCC(N)CC2)cc1 | 89 to 91 °C |
| CC(=O)OC1CSC(Oc2cncc(-c3ccc(C)cc3)c2)C(OC(C)=O)C1OC(C)=O (stereo unspecified) | 160 to 162 °C |
| O=C(c1ccccc1)N1CCc2cc(S(=O)(=O)N3CCN(c4cccc(Cl)c4)CC3)ccc21 | 200 to 201 °C |
| CC(O)(c1nc2ccc(S(=O)(=O)c3ccccc3)cc2[nH]1)C(F)(F)F (stereo unspecified) | 115 to 117 °C |

| Structure (SMILES) | melting point |
| --- | --- |
| CC(C)(Cc1ccc(S(=O)C(F)(F)F)cc1)C(O)c1cncnc1 (stereo unspecified) | 122 °C |
| Cc1ccc(C(=O)Nc2c(NC(=O)CN3CCSCC3)ccc3c2C(=O)c2ccccc2C3=O)cc1 | 210 to 211 °C |
| COc1cc2c(cc1OC)C(c1c(Cl)cccc1Cl)NC(=O)C2 (stereo unspecified) | 228 to 229 °C |
| CCN(C)C(=O)Nc1ccc2c(c1)C(c1ccccc1F)=NCC(=O)N2C | 165 to 168 °C |
| c1ccn2nc(-c3ccncc3)nc2c1 | 188 to 190 °C |
| CN(c1cccc(-c2ccnc3c([N+](=O)[O-])cnn23)c1)S(=O)(=O)c1ccccc1 | 177 to 179 °C |
| FC(F)Sc1ccc(-c2ccccc2)cc1 | 56 to 57 °C |
| CC(=O)Oc1c(C)c(C)c2c(c1C)CC(CCI)O2 (racemic) | 89 to 90 °C |
| Cn1cc(-c2cccc(N3Cc4cc(C(C)(C)C)ccc4C3=O)c2CO)cc(Nc2ccc(C3CNC3)cn2)c1=O | 185 to 186 °C |
| O=C(O)c1ccccc1C(=O)N1Cc2ccccc2Cc2ccccc21 | 220 to 225 °C |
| c1ccc(C(c2ccccc2)N2CCN(CCOc3ccccc3-c3nc4ccccc4s3)CC2)cc1 | 67 to 72 °C |
| CC(CO)CCn1c(C(=O)NCc2cc(C(F)(F)F)cc(C(F)(F)F)c2)c(-c2ccccc2)c2cccnc2c1=O (racemic) | 213 to 214 °C |
| O=C(CN1CCN(c2ccccc2)CC1)Nc1ccc2c(c1NC(=O)c1ccccc1)C(=O)c1ccccc1C2=O | 225 to 226 °C |
| CC(C)(C)CC(C)(C)c1cc(-n2nc3ccc([N+](=O)[O-])cc3n2)c(O)c(C(C)(C)c2ccccc2)c1 | 153 to 156 °C |
| CC1(C(=O)c2c[nH]c3ncc(Br)nc23)CCCCCC1 | 198 °C |
| O=C(Nc1cc(Cl)ncn1)c1ccccc1SSc1ccccc1C(=O)Nc1cc(Cl)ncn1 | 254 to 256 °C |
| Cn1cncc1C(N)(c1ccc(Cl)cc1)c1ccc2c(c1)c(-c1nc(-c3ccccc3)cs1)cc(=O)n2C (stereo unspecified) | 237 °C |
| O=C(OCc1ccccc1)C1C(Sc2ccccc2)CC2CC(=O)N21 (stereo unspecified) | 84 to 85 °C |
| Cc1c2c(cn1C)CN=C(c1ccccc1Cl)c1cc(Cl)ccc1-2 | 200 to 202 °C |
| CCC(CC)Oc1nc(C)nc2c1[nH]c(=O)n2-c1c(C)cc(C)cc1C | 159 to 160 °C |
| O=C(O)C(CC(=O)N1CC2CC=CCC2C1)Cc1ccccc1 (stereo unspecified) | 128 to 132 °C |

| Structure (SMILES) | melting point |
| --- | --- |
| CC(=O)NC1Cc2cccc3cccc(c23)C1 | 180 to 181 °C |
| COC(=O)c1c(/C=C/c2ccccc2)ccc2ccccc12 | 68 to 71 °C |
| Cc1cc(C)c(S(=O)(=O)NCCCCNS(=O)(=O)c2c(C)cc(C)cc2C)c(C)c1 | 156 to 158 °C |
| COc1cc(N)c(Cl)cc1C(=O)NC1CCN(CCCC2(C)NC(=O)NC2=O)CC1OC (stereo unspecified) | 236 °C |
| Cn1cncc1C(O)(c1ccc2c(c1)OCCO2)c1ccc2[nH]c(=O)nc(-c3cccc(Cl)c3)c2c1 (stereo unspecified) | > 260 °C |
| COc1cc2c(cc1OC)-c1c(N3CCNCC3)nc3ccccc3c1C2=O | 135 to 136 °C |
| Cc1nc2sc(Br)cc2c(=O)n1-c1ccccc1Cl | 164 to 166 °C |
| [N-]=[N+]=NC1(c2ccccc2Cl)C(=O)Nc2ccc(Cl)cc21 (stereo unspecified) | 178 °C |
| Cc1ccc2c(c1)c(Cl)c(C#N)c(=O)n2Cc1ccc(F)cc1 | 206 °C |
| CCOC(=O)C1CC(=O)c2nc(C)c(C)n2C1 (stereo unspecified) | 138 to 140 °C |
| CN(Cc1ccc(NC(=O)C2=Cc3cc(-c4ccc(Cl)cc4)ccc3S(=O)(=O)CC2)cc1)C1CCC(=O)CC1 | 197 to 200 °C |
| NC(=O)N(O)CC1CCCCCC1 | 110 to 112 °C |
| CC(C)(C)c1cc(C2=Cc3cc(-c4ccccc4)ccc3C2)cc(C(C)(C)C)c1 | 122 to 123 °C |
| Cc1ncc([N+](=O)[O-])n1CCN1C(=O)c2cccc([N+](=O)[O-])c2C1=O | 175 to 176 °C |
| COC(=O)C(=O)c1ccc(C#CCNC(=O)c2ccc3ccccc3c2)cc1 | 113 to 114 °C |
| COc1cc2c(cc1Nc1ncc(Cl)c(Nc3ccc(C#N)cc3OC)n1)CCN(CC(=O)N(C)C)CC2 | 92 to 105 °C |
| Cc1ccc(C(=O)Nc2ccc3c(c2NC(=O)c2ccc(C)cc2)C(=O)c2ccccc2C3=O)cc1 | 227 to 229 °C |
| COc1ncccc1-c1cccn2nc(Nc3ccc(C4CCN(CC(=O)N(C)C)CC4)cc3)nc12 | 173 to 175 °C |
| CCCC(NC(C)C(=O)N1C(C(=O)O)CC2CCCCC21)C(=O)OCC (stereo unspecified) | 86 to 92 °C |
| O=[N+]([O-])c1ccc(SCc2cnc3ccccn23)cc1 | 174 to 175 °C |

The remaining lines, values ahead:

| melting point | Structure (SMILES) |
| --- | --- |
| 112 to 114 °C | CCOC(=O)[C@H]1C2C[C@@H](O)[C@](O)(C(=O)OCc3ccccc3)[C@@H]21 (stereo partly specified) |
| 160 to 162 °C | COc1ccc(C(=O)C2Cc3cc(OC)ccc3C2=O)cc1 (stereo unspecified) |
| 125 to 128 °C | CCN(CCCc1coc2c(OC)cccc12)C1COc2c(F)ccc(C(N)=O)c2C1 (stereo unspecified) |
| 256 °C | CCOC(=O)c1cn(C2CC2)c2nc3cc(Cl)c(F)cc3cc2c1=O |
| 88 to 89 °C | CCCN(CCC)C(=O)COc1nc(-c2ccccc2)nc(C)c1C |
| 146 to 148 °C | COC(=O)CCc1ccc(NC(=O)NNC=O)cc1 |
| 142 to 145 °C | COC(=O)CNC(=S)n1nc(-c2ccc(Cl)cc2)nc1N |
| 150 to 153 °C | CC(=NOCCOc1ccc(CC2SC(=O)NC2=O)cc1)c1cncc(-c2ccccc2)c1 (stereo unspecified) |
| 168 to 170 °C | CCCn1nc2c(N)nc3ccccc3c2c1NCCC1CCN(C(=O)NC(C)C)CC1 |
| 53 to 55 °C | CCCCOC(=O)CCCOc1ccc(F)c(C(N)=O)c1F |
| 173 to 175 °C | CC(C)OC(=O)Nc1ccc(N)c([N+](=O)[O-])c1 |
| 195 to 196 °C | CNC(=O)c1cc2c(Oc3ccc(CO)cc3)cncc2s1 |
| 167 to 170 °C | CCCN(CCN1CCN(C(=O)c2n[nH]c3ccccc23)CC1)C1CCc2c(O)cccc2C1 (stereo unspecified) |
| 103 to 104 °C | COC(=O)c1cc(C(=O)OC)cc(P(c2ccccc2)c2ccccc2)c1 |
| 175 to 179 °C | O=C(O)C1=Cc2cc(Cl)cc(CO)c2OC1C(F)(F)F (stereo unspecified) |
| 130 to 132 °C | COC(=O)/C=C/c1c(F)cc2nn(C)cc2c1C(=O)OC |
| 112 °C | COC[C@H]1CN(c2ccc(OCCC3(C(F)(F)F)OCCO3)cc2)C(=O)O1 |

| melting point | Structure (SMILES) |
| --- | --- |
| 260 to 263 °C | CCOCCn1cc2c(C3C(=O)Nc4ccc(Br)cc43)nc(Cl)nc2n1 (stereo unspecified) |
| 80 to 81 °C | COc1ccccc1N1CCN(CCCCN2CSCC2=O)CC1 |
| 190 to 192 °C | CCCn1c(CCO)nc2c(N)nc3cc(OCCCNC(=O)C(C)C)ccc3c21 |
| 133 to 134 °C | Cc1oc(-c2ccccc2)nc1CCOc1ccc(CC(C)(C)C(=O)O)cc1 |
| 191 to 192 °C | C[C@@H](NC(=O)c1cnn(-c2ccc(Cl)cc2)c1C(C)(C)C)[C@](O)(Cn1cncn1)c1ccc(F)cc1F |
| 180 to 182 °C | CCOC(=O)C1=Cc2cc(Cl)cnc2NC1C(F)(F)F (stereo unspecified) |
| 284 to 285 °C | CCOC(=O)C1=C(C)Nc2cc[nH]c(=O)c2C1c1cccs1 (stereo unspecified) |
| > 250 °C | Cc1ccsc1-c1ccc(C(C)(N)C(=O)O)cc1 (stereo unspecified) |
| 140 to 141 °C | COc1ccc(C2(C=O)C=CC=CC2)cc1OCCCC1(c2noc3cc(F)ccc23)CCNCC1 (stereo unspecified) |
| 180 to 183 °C | O=c1c(Br)c(OCc2ccc(F)cc2)ccn1Cc1cccc(F)c1 |
| 190 to 191 °C | COC(=O)c1ccc(=O)n(CCNC(=O)c2ccccc2)c1 |
| 198 to 199 °C | COc1ccc(-n2c(=O)oc3ccc(-c4ccc(F)cc4F)cc3c2=O)cc1OC |
| 110 to 111 °C | COc1ccc(Oc2ccccc2)c(NS(C)(=O)=O)c1 |
| 73 to 75 °C | CS(=O)(=O)NC(CCCCCc1ccc(Cl)cc1)C(=O)O (stereo unspecified) |
| 113 to 114 °C | CCOC(=O)c1cnn(-c2cc(C)cc(C)c2)c1N |
| 171 to 172 °C | CCC1Cc2cc(OCC(=O)O)c(Cl)c(Cl)c2C1=O (stereo unspecified) |
| 122 °C | CC(=O)N(C)c1scc(C)c1C(=O)c1ccccc1 |

Source: a melting point compilation (Tetko et al.; mined from patent text by program, amines drawn as free bases though some values may be those of a salt)
